Reference: PubChem BioAssay AID814 (SRMLSC, 2007)
Activity calls are given as the source filed them. How the calls were made is not given here.

System: cell imaging, HER kinase expression, mean fluorescence
Assay: HER kinase expression suppression, imaging readout – mean fluorescence, total cell number, dose response (AID 814)
[1] = measured here: total cell number (cytotoxicity)

EC50	Structure (SMILES)	EC50 [1]
9.52 µM	Cc1nc2nc(-c3ccco3)nn2c(C)c1Cl	> 10 µM
4.69 µM	Nc1nnnn1/N=C/C(Br)=C/c1ccccc1	> 10 µM
8.31 µM	Cn1c(C(C#N)C(=O)c2ccco2)nc2ccccc21 (stereo not drawn)	> 10 µM
8.14 µM	CCCCS(=O)(=O)/C=C\C=C/S(=O)(=O)CCCC	7.52 µM
> 10 µM (inactive)	CC(=O)c1sc2nc(-c3cccs3)cc(C(F)(F)F)c2c1N	> 10 µM
9.35 µM	CCCn1c(NC(=O)c2ccco2)nc2ccccc21	> 10 µM
8.06 µM	Cc1ccc(-c2csc3ncnc(Sc4nnc(CN5CCCCCC5=O)o4)c23)cc1	> 10 µM
8.32 µM	CCN1/C(=C/C(=O)c2ccco2)Sc2ccccc21	> 10 µM
> 10 µM (inactive)	O=S(=O)(C/C(=C/CO)S(=O)(=O)c1ccccc1)c1ccccc1	> 10 µM
> 10 µM (inactive)	CS(=O)(=O)c1nc(-c2ccccc2)cc(C(F)(F)F)n1	> 10 µM
8.3 µM	Cc1nn2c(-c3ccco3)nnc2c2ccccc12	> 10 µM
> 10 µM (inactive)	CS(=O)(=O)c1nc(-c2ccco2)cc(C(F)(F)F)n1	> 10 µM
7.75 µM	O=S(=O)(CC(CN1CCCC1)N1CCCC1)c1ccc2ccccc2c1 (stereo not drawn)	> 10 µM
> 10 µM (inactive)	CSC1=N/C(=C\C=C\c2cccs2)C(=O)S1	> 10 µM
> 10 µM (inactive)	Cc1ccc(CNC(=O)c2cc3c(-c4ccc(Cl)cc4)nn(C)c3s2)o1	> 10 µM
6.95 µM	CN(C)CC(C(=O)c1ccccc1)c1ccccc1 (stereo not drawn)	> 10 µM
8.41 µM	Cc1nc(NC(=O)c2ccco2)sc1C(=O)Nc1ccc(Br)cc1	> 10 µM
> 10 µM (inactive)	CS(=O)(=O)c1nc(-c2cccs2)cc(C(F)(F)F)n1	> 10 µM
8.27 µM	COc1ccc(C(=O)C(CN2CCCC2)c2ccccc2)cc1 (stereo not drawn)	> 10 µM
8.72 µM	O=S1(=O)C=C(Sc2nnc(-c3ccccc3)o2)c2ccccc21	> 10 µM
> 10 µM (inactive)	O=C(CSc1nc2cc(Cl)ccc2s1)c1ccco1	> 10 µM
6.49 µM	COC(=O)c1sccc1NC(=O)c1ccc(Cl)s1	> 10 µM
> 10 µM (inactive)	O=S1(=O)C=C(Sc2nc3cc(Cl)ccc3o2)c2ccccc21	> 10 µM
5.41 µM	O=S1(=O)C=C(Sc2nc3ccccc3s2)c2ccccc21	7.61 µM
